Test results taken from patent US20060183909A1, “Compositions derived from quinoline and quinoxaline, preparation and use thereof” (priority 2001, published 2006).
Entries after “also recorded” stand apart in the source; their conditions may differ. Where two headings read alike, the source gives them in different places. Blank lines part the entries; values can stand above or below the compound they belong to.

Assays:
[1] = target: xanthurenic acid receptor; experiment: Competition protocol, IC50 determination against [3H]-XA binding on synaptic membranes
Description: Binding is carried out in 50 mM Pipes buffer pH 7.4 at 0° C. […] If the compound reversibly binds to the binding site of [^3H]-XA, the two ligands will compete with each other and a binding displacement curve for [^3H]-XA can be plotted against the concentration of the competitor molecule. The incubation time is 25 minutes, followed by filtration.

[2] = test system: xanthurenic acid receptor; experiment: Screening: displacement of [3H]-XA binding to synaptic membranes at a fixed concentration; conditions: for % inhibition of XA binding at 10 μM* / % inhibition of XA binding at 50 μM*: xanthurenic acid set arbitrarily to 100%; for % inhibition of XA binding at 50 μM*: compound at 50 μM
Description: If this concentration produces the same or greater displacement than the same concentration of non-radiolabelled XA, then an IC50 is determined. […] The incubation time is 25 min. […] The filters are placed in scintillation vials to which 5 ml of Rotiszint® (Roth) are added and the vials are counted in a Beckman LS6000sc liquid scintillation counter. Specific binding is given as the difference between total binding and nonspecific binding. The percentage inhibition of binding that the synthetic compounds produce is calculated for each compound in relation to its positive control.

[3] = test system: xanthurenic acid receptor; experiment: In vitro electrophysiology experiments, block of xanthurenic acid effects; format: cell-based
[4] = test system: xanthurenic acid receptor; experiment: In vivo studies of stereotypic behaviors, block of xanthurenic acid effects
[5] = two site binding model, second (higher) IC50, 200 nM [3H]-XA, synaptic membranes, read-out: IC50 (μM), second of two values
[6] = compound at 10 μM, 200 nM [3H]-XA, synaptic membranes
[7] = 200 nM [3H]-XA, synaptic membranes
[8] = single value, inhibition of binding of 200 nM [3H]-XA, synaptic membranes, read-out: IC50

SMILES: O=C(O)c1ccc2cccc(O)c2n1
IC50 ([1]; two site binding model, first (lower) IC50, 200 nM [3H]-XA, synaptic membranes, read-out: IC50 (μM), first of two values): 0.09 µM
IC50 [1, 5]: 12.3 µM

SMILES: O=C(O)c1cc(O)c2c(Cl)cc(Cl)c(O)c2n1 [Compound 3i, 4,8-dihydroxy-5,7-dichloro-quinoline-2-carboxylic acid]
% inhibition of XA binding at 10 μM* [2, 6]: 163%
% inhibition of XA binding at 50 μM* [2, 7]: 80%
IC50 [1, 8]: 4.6 µM

SMILES: O=C(O)c1cc(O)c2cc(-c3ccccc3)cc(O)c2n1 [Compound 19f, 4,8-dihydroxy-6-pheenyl-quinoline-2-carboxylic acid]
% inhibition of XA binding at 10 μM* [2, 6]: 163.1%
IC50 [1, 8]: 5.2 µM

SMILES: CN1CCN(c2cc(C(=O)O)nc3c(O)cccc23)CC1.Cl [Compound 110c, 8-hydroxy-4-(4-methyl-piperazin-1-yl)-quinoline-2-carboxylic acid hydrochloride]
% inhibition of XA binding at 10 μM* [2, 6]: 166%

SMILES: Nc1cc(CCc2ccccc2)cc2c(O)cc(C(=O)O)nc12 [Compound 118c, 6-phenylethyl-8-amino-4-hydroxy-quinoline-2-carboxylic acid]
% inhibition of XA binding at 10 μM* [2, 6]: 66%

SMILES: CN1CCN(c2cc(N)c3nc(C(=O)O)cc(O)c3c2)CC1.Cl [Compound 124b, 6-N-(N-methylpiperazinyl)-8-amino-4-hydroxy-quinoline-2-carboxylic acid hydrochloride]
% inhibition of XA binding at 10 μM* [2, 6]: 109%

SMILES: O=C(O)c1cc(O)c2cccc(O)c2n1 [Xanthurenic acid, reference compound]
% inhibition of XA binding at 10 μM* [2, 6]: 100%
% inhibition of XA binding at 50 μM* [2, 7]: 100%
IC50 ([1]; competition between [3H]-XA and non-radiolabelled XA, read-out: IC50, first site of two site binding model): 0.3 µM
IC50 [1, 5]: 57 µM

Now from value to compound, other results behind:

IC50 [1, 8]: 12 µM
SMILES: O=C(O)c1cc(O)c2cc(Br)cc(O)c2n1 [Compound 3k, 4,8-dihydroxy-6-bromo-quinoline-2-carboxylic acid]

% inhibition of XA binding at 50 μM* [2, 7]: 106%
IC50 [1, 8]: 14.6 µM
SMILES: Nc1cccc2c(O)cc(C(=O)O)nc12 [Compound 3u, 4-hydroxy-8-amino-quinoline-2-carboxylic acid]
effect on xanthurenic acid binding, in words [2]: quite potent inhibitor of xanthurenic acid binding; also recorded: potent inhibitors of XA binding to its site
effect on xanthurenic acid effects in vitro (electrophysiology) [3]: blocks the effects of xanthurenic acid without displaying an intrinsic effect
effect on xanthurenic acid effects in vivo (stereotypic behaviors) [4]: blocks the effects of xanthurenic acid without displaying an intrinsic effect

% inhibition of XA binding at 10 μM* [2, 6]: 109%
SMILES: O=C(O)c1cc(O)c2cccc(CCc3ccccc3)c2n1 [Compound 111c, 4-hydroxy-8-phenylethyl-quinoline-2-carboxylic acid]

% inhibition of XA binding at 10 μM* [2, 6]: 97%
SMILES: Nc1cc(Cl)cc2c(O)cc(C(=O)O)nc12 [Compound 117d, 6-chloro-8-amino-4-hydroxy-quinoline-2-carboxylic acid]

% inhibition of XA binding at 10 μM* [2, 6]: 120%
SMILES: NCCCc1cc(N)c2nc(C(=O)O)cc(O)c2c1 [Compound 121c, 6-(3′-aminopropyl)-8-amino-4-hydroxy-quinoline-2-carboxylic acid]

% inhibition of XA binding at 10 μM* [2, 6]: 29%
SMILES: Cl.Nc1cc(CCc2cccnc2)cc2c(O)cc(C(=O)O)nc12 [Compound 122c, 6-(pyridin-3-yl)ethyl-8-amino-4-hydroxy-quinoline-2-carboxylic acid hydrochloride]

% inhibition of XA binding at 10 μM* [2, 6]: 100%
SMILES: N#CCCCCCc1cc(N)c2nc(C(=O)O)cc(O)c2c1 [Compound 123c, 6-(5′-cyanopentyl)-8-amino-4-hydroxy-quinoline-2-carboxylic acid]

effect on xanthurenic acid binding, in words [2]: increase the binding of xanthurenic acid
real increase in total binding (potentiation) [2, 6]: (+70% real increase
% inhibition of XA binding at 10 μM* [2, 6]: Potentiation
SMILES: O=C(O)c1cc(=O)c2ccccc2[nH]1 [Kynurenic acid, reference compound]
